Test results from patent publication US5681588A, “Delayed release microtablet of β-phenylpropiophenone derivatives” (priority 1993, dated 1997).
Where a name gives a salt, the structure may show the parent alone.

Test: Release of other medicinal substances from the same preparation
Type: physicochemical
Conditions: in 1 hour

CN/C(=N/CCSCc1nc[nH]c1C)NC#N [cimetidine hydrochloride]
release from the same preparation: 90%

CC(=O)Nc1ccc(O)cc1 [paracetamol]
release from the same preparation: 90%
